This is an account of results in paper PMC9411522, “Ginsenoside Rg5 allosterically interacts with P2RY12 and ameliorates deep venous thrombosis by counteracting neutrophil NETosis and inflammatory response” (Frontiers in Immunology, 2022).

The structures appear in SMILES notation.

The target of experiment [1] is T1, P2RY12 (Homo sapiens, UniProt Q9H244). The experiment in a line: SPR (Biacore T200, His-captured purified P2RY12, steady-state affinity); antagonism of 2MesADP signalling in CHO-P2RY12 cells. It is filed as binding. On the technique in general: SPR reads the build-up and loss of mass on a sensor chip optically.
Experiment [2] deals with T1, P2RY12. The experiment in a line: biochemical.

T1 sequence (Q9H244 whole entry, one chain of several): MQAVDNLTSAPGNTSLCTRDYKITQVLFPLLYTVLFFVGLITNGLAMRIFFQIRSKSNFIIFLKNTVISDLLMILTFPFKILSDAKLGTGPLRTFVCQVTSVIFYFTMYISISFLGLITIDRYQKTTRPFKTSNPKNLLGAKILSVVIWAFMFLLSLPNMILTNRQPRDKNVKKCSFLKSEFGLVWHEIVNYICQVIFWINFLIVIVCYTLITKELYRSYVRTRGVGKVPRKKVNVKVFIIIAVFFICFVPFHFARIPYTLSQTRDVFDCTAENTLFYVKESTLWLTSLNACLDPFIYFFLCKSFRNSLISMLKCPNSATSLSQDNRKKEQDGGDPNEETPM

The term Kd denotes the concentration at which binding is half-saturated. `CC(C)=CC/C=C(\C)[C@H]1CC[C@]2(C)[C@@H]1[C@H](O)C[C@@H]1[C@@]3(C)CC[C@H](O[C@@H]4O[C@H](CO)[C@@H](O)[C@H](O)[C@H]4O[C@@H]4O[C@H](CO)[C@@H](O)[C@H](O)[C@H]4O)C(C)(C)[C@@H]3CC[C@]12C` [Rg5, Ginsenoside Rg5]: the Kd in experiment [1] stood at 330 nM. Turning to `CCCSc1nc(N[C@@H]2C[C@H]2c2ccc(F)c(F)c2)c2nnn([C@@H]3C[C@H](OCCO)[C@@H](O)[C@H]3O)c2n1` [Ticagrelor], in experiment [2], the affinity, expressed as Kd, was 102 nM. This counts as sub-micromolar.
